Reference: patent publication US8916498B2, “Safening 6-(trisubstituted phenyl)-4-amino-2-pyridinecarboxylate herbicide injury on direct seeded and transplanted paddy rice” (priority 2008, dated 2014)
Like-named read-outs stand apart in the source and are kept apart here.

Experiments:
transplanted paddy rice [1] = assay: Safening activity of herbicide mixtures in transplanted paddy rice; assay type: in vivo, Oryza sativa
Description: (§1) The prepared mud was dispensed in 250 mL aliquots into 480 mL non-perforated plastic pots with a surface area of 91.6 cm^2 leaving a headspace of 3 cm in each pot. Rice seeds were planted in Sun Gro MetroMix 306 planting mixture, which typically has a pH of 6.0 to 6.8 and an organic matter content of about 30 percent, in plastic plug trays. Seedlings at the second or third leaf stage of growth were transplanted into 650 mL of mud contained in 960 mL non-perforated plastic pots with a surface area of 91.6 cm^2 four days prior to herbicide application. The paddy was created by filling the 3 cm headspace of the pots with water. […] Nutrients were added as Osmocote (17:6:10, Nitrogen:Phosphorus:Potassium (N:P:K)+minor nutrients) at 2 grams (g) per cup.
(§2) For technical grade compounds and safeners, a weighed amount, determined by the highest rate to be tested, was placed in an individual 120 mL glass vial and was dissolved in 20 mL of acetone to obtain concentrated stock solutions. […] The concentrated stock solutions obtained were diluted with 20 mL of acetone. Applications were made by injecting an appropriate amount of the stock solution into the aqueous layer of the paddy. […] All treated plant material received the same concentration of acetone and crop oil concentrate.
Forms of compound 1 were applied on an acid equivalent basis.

ECHCO = assay: Postemergence herbicidal safening in direct seeded rice, visual injury on weed; assay type: in vivo; conditions: alone, after 3 weeks
CYPDI = assay: as above; assay type: in vivo; conditions: alone, after 3 weeks
weed test plant species = assay: Herbicidal safening in transplanted paddy rice, visual injury on weeds; assay type: in vivo; conditions: after 3 weeks; for Visual Injury (%) CYPDI Obs: Cyperus difformis; for Visual Injury (%) MOOVA Obs: Monochoria vaginalis; for Visual Injury (%) SCPJU Obs: Scirpus juncoides
Description: (§3) Evaluation of Herbicidal Safening in Transplanted Paddy Rice
as §1, §2

ORYSA (rice) = assay: Postemergence herbicidal safening in direct seeded rice, visual injury; conditions: for Visual Injury (%) ‘Lemont’ ORYSA Obs: alone; for Visual Injury (%) ‘Lemont’ ORYSA Obs / ‘M202’ ORYSA Visual Injury (%) Obs: after 3 weeks; for ‘M202’ ORYSA Visual Injury (%) Obs: Safener Alone, 560 g ai/ha
Source text: A=observed efficacy of active ingredient A at the same concentration as used in the mixture.
B=observed efficacy of active ingredient B at the same concentration as used in the mixture.

SEBEX = assay: Postemergence herbicidal safening in direct seeded rice, visual injury on weed; assay type: in vivo; conditions: alone, after 3 weeks
transplanted paddy rice [2] = assay: Herbicidal safening in transplanted paddy rice, visual injury; assay type: in vivo, Oryza sativa; conditions: after 3 weeks; for ‘M202’ ORYSA Visual Injury (%) Obs: safener 1120 g ae/ha alone
Description: as §3, §1, §2

For `O=c1c(Cl)c[nH]c(Cl)c1Cl` [Pyriclor], the “Visual Injury (%) ‘M202’ ORYSA Obs” value (transplanted paddy rice [1]; partner 140 g/ha alone) was 0%.

For `COc1c(Cl)ccc(-c2cc(N)c(Cl)c(C(=O)[O-])n2)c1Cl.[Na+]` [Compound 2 Na + salt], the “Visual Injury (%) ECHCO Obs” value (ECHCO; 70 g ai/ha) was 90%, the “Visual Injury (%) CYPDI Obs” value (CYPDI; 70 g ai/ha) was 100% and the “Visual Injury (%) CYPDI Obs” value (weed test plant species; herbicide 70 g ai/ha alone) was 100%. For the same compound, the “Visual Injury (%) MOOVA Obs” value (weed test plant species; herbicide 70 g ai/ha alone) was 100%, the “Visual Injury (%) ‘Lemont’ ORYSA Obs” value (ORYSA (rice); 70 g ai/ha) was 15% and the “Visual Injury (%) SEBEX Obs” value (SEBEX; 70 g ai/ha) was 100%.

In the case of `CCOC(=O)C1=NOC(c2ccccc2)(c2ccccc2)C1` [Isoxadifen-ethyl, ethyl 4,5-dihydro-5,5-diphenyl-3-isoxazole-carboxylate], the “Visual Injury (%) ECHCO Obs” value (ECHCO; 17.5 g ai/ha) is reported as 0%, the “Visual Injury (%) ECHCO Obs” value (ECHCO; 35 g ai/ha) is reported as 0% and the “Visual Injury (%) ECHCO Obs” value (ECHCO; 70 g ai/ha) is reported as 0%. For the same compound, the “Visual Injury (%) ECHCO Obs” value (ECHCO; 140 g ai/ha) was 0%, the “Visual Injury (%) CYPDI Obs” value (CYPDI; 17.5 g ai/ha) was 0% and the “Visual Injury (%) CYPDI Obs” value (CYPDI; 35 g ai/ha) was 0%. For the same compound, the “Visual Injury (%) CYPDI Obs” value (CYPDI; 70 g ai/ha) was 0%, the “Visual Injury (%) CYPDI Obs” value (CYPDI; 140 g ai/ha) was 0% and the “Visual Injury (%) SCPJU Obs” value (weed test plant species; safener 140 g ai/ha alone) was 0%. For the same compound, the “Visual Injury (%) SCPJU Obs” value (weed test plant species; safener 280 g ai/ha alone) was 0%, the “Visual Injury (%) SCPJU Obs” value (weed test plant species; safener 560 g ai/ha alone) was 0% and the “Visual Injury (%) ECHCG Obs” value (weed test plant species; safener 140 g ai/ha alone) was 0%. The “Visual Injury (%) ECHCG Obs” value (weed test plant species; safener 280 g ai/ha alone) was 0%, the “Visual Injury (%) ECHCG Obs” value (weed test plant species; safener 560 g ai/ha alone) was 0% and the “Visual Injury (%) ‘M202’ ORYSA Obs” value (transplanted paddy rice [2]; safener 140 g ai/ha alone) was 0%. For the same compound, the “Visual Injury (%) ‘M202’ ORYSA Obs” value (transplanted paddy rice [2]; safener 280 g ai/ha alone) was 0%, the “Visual Injury (%) ‘M202’ ORYSA Obs” value (transplanted paddy rice [2]; safener 560 g ai/ha alone) was 0% and the “‘M202’ ORYSA Visual Injury (%) Obs” value (transplanted paddy rice [2]) was 0%. For the same compound, the “Visual Injury (%) ‘Lemont’ ORYSA Obs” value (ORYSA (rice); 17.5 g ai/ha) was 0%, the “Visual Injury (%) ‘Lemont’ ORYSA Obs” value (ORYSA (rice); 35 g ai/ha) was 5% and the “Visual Injury (%) ‘Lemont’ ORYSA Obs” value (ORYSA (rice); 70 g ai/ha) was 10%. The “Visual Injury (%) ‘Lemont’ ORYSA Obs” value (ORYSA (rice); 140 g ai/ha) was 5%, the “Visual Injury (%) SEBEX Obs” value (SEBEX; 17.5 g ai/ha) was 0% and the “Visual Injury (%) SEBEX Obs” value (SEBEX; 35 g ai/ha) was 0%. The “Visual Injury (%) SEBEX Obs” value (SEBEX; 70 g ai/ha) was 0% and the “Visual Injury (%) SEBEX Obs” value (SEBEX; 140 g ai/ha) was 0%.

For `CCCCOC(=O)[C@@H](C)Oc1ccc(Oc2ccc(C#N)cc2F)cc1` [Cyhalofop-butyl], the “Visual Injury (%) ‘M202’ ORYSA Obs” value (transplanted paddy rice [1]; partner 90 g/ha alone) was 0% and the “Visual Injury (%) ‘M202’ ORYSA Obs” value (transplanted paddy rice [1]; partner 180 g/ha alone) was 0%.

With `CCOC(=O)C1=NN(c2ccc(Cl)cc2Cl)C(C)(C(=O)OCC)C1` (centres unmarked) [Mefenpyr-diethyl] the “‘M202’ ORYSA Visual Injury (%) Obs” value (transplanted paddy rice [2]) was 0%, the “‘M202’ ORYSA Visual Injury (%) Obs” value (ORYSA (rice)) was 0.0% and the “ORYSA Visual Injury (%) ‘Clearfield’ Obs” value (ORYSA (rice); safener 140 g ai/ha alone) was 0%. For the same compound, the “ORYSA Visual Injury (%) ‘Cocodrie’ Obs” value (ORYSA (rice); safener 140 g ai/ha alone) was 10%, the “ORYSA Visual Injury (%) ‘Lemont’ Obs” value (ORYSA (rice); safener 140 g ai/ha alone) was 0% and the “ORYSA Visual Injury (%) ‘M202’ Obs” value (ORYSA (rice); safener 140 g ai/ha alone) was 10%.

With `CCOC(=O)C(Cl)Cc1cc(-n2nc(C)n(C(F)F)c2=O)c(F)cc1Cl` (centres unmarked) [Carfentrazone-ethyl] the “ORYSA Visual Injury (%) ‘M202’ Obs” value (direct seeded rice; partner 56 g/ha alone) was 20%, the “ORYSA Visual Injury (%) ‘Wells’ Obs” value (direct seeded rice; partner 56 g/ha alone) was 25% and the “ORYSA Visual Injury (%) ‘M202’ Obs” value (direct seeded rice; partner 112 g/ha alone) was 20%. For the same compound, the “ORYSA Visual Injury (%) ‘Wells’ Obs” value (direct seeded rice; partner 112 g/ha alone) was 35%.

`Clc1cc(Cl)nc(-c2ccccc2)n1` [Fenclorim, 4,6-dichloro-2-phenylpyrimidine] was tested, and the “Visual Injury (%) ECHCO Obs” value (ECHCO; 35 g ai/ha) was 0%, the “Visual Injury (%) ECHCO Obs” value (ECHCO; 70 g ai/ha) was 0% and the “Visual Injury (%) ECHCO Obs” value (ECHCO; 140 g ai/ha) was 0%. The “Visual Injury (%) ECHCO Obs” value (ECHCO; 280 g ai/ha) was 0%, the “Visual Injury (%) CYPDI Obs” value (CYPDI; 35 g ai/ha) was 0% and the “Visual Injury (%) CYPDI Obs” value (CYPDI; 70 g ai/ha) was 0%. The “Visual Injury (%) CYPDI Obs” value (CYPDI; 140 g ai/ha) was 0%, the “Visual Injury (%) CYPDI Obs” value (CYPDI; 280 g ai/ha) was 0% and the “Visual Injury (%) CYPDI Obs” value (weed test plant species; safener 70 g ai/ha alone) was 0%. For the same compound, the “Visual Injury (%) CYPDI Obs” value (weed test plant species; safener 140 g ai/ha alone) was 0%, the “Visual Injury (%) CYPDI Obs” value (weed test plant species; safener 280 g ai/ha alone) was 0% and the “Visual Injury (%) MOOVA Obs” value (weed test plant species; safener 70 g ai/ha alone) was 0%. For the same compound, the “Visual Injury (%) MOOVA Obs” value (weed test plant species; safener 140 g ai/ha alone) was 0%, the “Visual Injury (%) MOOVA Obs” value (weed test plant species; safener 280 g ai/ha alone) was 0% and the “‘M202’ ORYSA Visual Injury (%) Obs” value (ORYSA (rice)) was 6.7%. The “Visual Injury (%) ‘Lemont’ ORYSA Obs” value (ORYSA (rice); 35 g ai/ha) was 0%, the “Visual Injury (%) ‘Lemont’ ORYSA Obs” value (ORYSA (rice); 70 g ai/ha) was 0% and the “Visual Injury (%) ‘Lemont’ ORYSA Obs” value (ORYSA (rice); 140 g ai/ha) was 0%. The “Visual Injury (%) ‘Lemont’ ORYSA Obs” value (ORYSA (rice); 280 g ai/ha) was 0%, the “Visual Injury (%) SEBEX Obs” value (SEBEX; 35 g ai/ha) was 0% and the “Visual Injury (%) SEBEX Obs” value (SEBEX; 70 g ai/ha) was 0%. The “Visual Injury (%) SEBEX Obs” value (SEBEX; 140 g ai/ha) was 0% and the “Visual Injury (%) SEBEX Obs” value (SEBEX; 280 g ai/ha) was 0%.
